Drawing on patent publication US20240270715A1, “INHIBITORS OF TRANSGLUTAMINASES” (ZEDIRA GMBH, priority 2021, published 2024), this text covers Papp, IC50 and logD for eight compounds.

The nature of series [1]: Caco-2 permeability assay (CacoReady kit). The series is classed as in vitro ADME. The note with it: human. Here is the method: Permeability coefficients (Papp values) were obtained from Caco-2 barrier studies predicting oral/intestinal bioavailability of the tested compounds. The assays were performed by using CacoReady™ ready-to-use kits from ReadyCell according to the manufacturers protocol.
(In general: Passage across Caco-2 layers is used to estimate intestinal permeability.)

Series [2] has as its target T1, recombinant human transglutaminase 2 (Homo sapiens, UniProt P21980).
T1 sequence (P21980 1-687): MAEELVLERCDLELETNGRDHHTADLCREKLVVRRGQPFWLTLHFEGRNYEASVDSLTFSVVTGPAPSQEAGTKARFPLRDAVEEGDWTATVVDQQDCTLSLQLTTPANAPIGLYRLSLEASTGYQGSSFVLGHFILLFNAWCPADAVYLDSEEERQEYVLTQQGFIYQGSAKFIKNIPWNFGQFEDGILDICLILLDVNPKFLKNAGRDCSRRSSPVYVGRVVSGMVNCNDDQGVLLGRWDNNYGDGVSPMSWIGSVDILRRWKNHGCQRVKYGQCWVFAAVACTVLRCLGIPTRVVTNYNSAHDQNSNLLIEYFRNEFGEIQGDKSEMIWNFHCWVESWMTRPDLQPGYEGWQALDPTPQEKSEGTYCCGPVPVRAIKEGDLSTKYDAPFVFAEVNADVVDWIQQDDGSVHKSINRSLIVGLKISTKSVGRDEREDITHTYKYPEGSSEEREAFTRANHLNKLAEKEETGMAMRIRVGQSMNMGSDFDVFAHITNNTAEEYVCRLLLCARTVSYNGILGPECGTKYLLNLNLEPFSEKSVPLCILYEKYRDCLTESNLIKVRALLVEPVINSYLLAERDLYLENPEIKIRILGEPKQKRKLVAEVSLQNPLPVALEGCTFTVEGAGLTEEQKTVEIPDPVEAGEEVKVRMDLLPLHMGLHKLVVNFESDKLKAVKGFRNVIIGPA
Kind of series: Transglutaminase assay: incorporation of dansylcadaverine into dimethylcasein (DCC-assay). The format is biochemical. The following applies: recombinant human TG2 10 nM, dansylcadaverine/dimethylcasein; read-out: IC50 TG2. Here is the method:
To illustrate the advantage of branched alkyl moieties over aromatic moieties, we refer to reference compounds Ref. 2 (ZED1227, U.S. Pat. No. 9,434,763 B2) and Ref. 3 (A8, ZED1047). Inhibition data were determined using the classical fluorescent transamidation assay (dansylcadaverine incorporation into methylated casein, DCC-assay) as described [Büchold, C.; Hils, M.; Gerlach, U.; Weber, J.; Pelzer, C.; Heil, A.; Aeschlimann, D.; Pasternack, R. Features of ZED1227: The First-In-Class Tissue Transglutaminase Inhibitor Undergoing Clinical Evaluation for the Treatment of Celiac Disease. Cells 2022, 11, 1667. https://doi.org/10.3390/cells11101667]. Casein is one of the best known high molecular weight (24 kDa) protein substrates for transglutaminases. Please note, the IC50 value of Ref. 3 (A8) published in U.S. Pat. No. 9,434,763 B2 cannot be compared to the present data, relying on a fluorogenic isopeptidase assay.
To this extent, inhibition data were determined using the classical fluorescent transamidation assay (dansylcadaverine incorporation into methylated casein, DCC-assay) as described in Büchold et al. [Büchold, C.; Hils, M.; Gerlach, U.; Weber, J.; Pelzer, C.; Heil, A.; Aeschlimann, D.; Pasternack, R. Features of ZED1227: The First-In-Class Tissue Transglutaminase Inhibitor Undergoing Clinical Evaluation for the Treatment of Celiac Disease. Cells 2022, 11, 1667. https://doi.org/10.3390/cells11101667]. Casein is one of the best known high molecular weight (24 kDa) protein substrates for transglutaminases. Inhibition data of the inventive compounds was compared with inhibition of compounds disclosed in U.S. Pat. No. 9,434,763 B2, particularly, compound A8, which is denoted herein as Reference 3. It is noteworthy that the IC50 values of compounds A8 published in U.S. Pat. No. 9,434,763 B2 and E16 from U.S. Pat. No. 11,072,634 B2 cannot be compared to the present data, relying on a fluorogenic isopeptidase assay.
For the determination of potency of inhibitors against tissue transglutaminase, the incorporation of dansylcadaverine into dimethylcasein (Zedira product T036, Lorand et al., Anal Biochem, 1971, 44:221-31) was measured using recombinant human transglutaminase 2 (Zedira Product T022).
The tissue transglutaminase is diluted in buffer (50 mM Tris-HCl, 7.5 mM CaCl2, 150 mM NaCl, pH=7.4). The final concentration of TG2 in the assay is 10 nM.
A 10 mM inhibitor stock solution is prepared in DMSO, and from this a serial 1:2-fold dilution series is prepared also in DMSO. Each of the initial dilutions is subsequently diluted 1:50-fold with buffer (50 mM Tris-HCl, 7.5 mM CaCl2, 150 mM NaCl, pH=7.4) to yield the final working dilutions containing 2% (v/v) DMSO. 15 μl of inhibitor working dilution are added per well of a 96 well microtiter plate. As control, 15 μl of a 2% (v/v) DMSO solution prepared using the buffer mentioned above are added per well.
Immediately before starting the assay, 600 μl transglutaminase working solution are added to 11.4 ml assay buffer (50 mM Tris-HCl, 10 mM CaCl2, 10 mM glutathione, 2.5% glycerol, 16.7 μM dansylcadaverine, 4 μM N,N-dimethylcasein, 200 mM NaCl, pH=8.0). 285 μl of this reaction mix are added per well containing the inhibitor.
Increase in fluorescence is measured using λex=330 nm and λemG=500 nm at […] for 30 min. A slope of the increase in fluorescence between 20 and 30 min is calculated for determination of the IC50 value (inhibitor concentration at which 50% of the initial activity is blocked).
Analysis of enzymatic activity is performed by calculation of the slope of an increase in fluorescence intensity. IC50 values are calculated by plotting the enzymatic activity (as percentage from control containing 2% DMSO instead of inhibitor) against the inhibitor concentration. IC50 is defined as the inhibitor concentration blocking 50% of initial enzyme activity.

The nature of series [3]: Log D by shake flask method (octanol / PBS pH 7.4, HPLC). The following applies: octanol / PBS pH 7.4, shake flask; read-out: logD. The format is physicochemical. The method, then: In order to classify the inventive compounds according to their lipophilicity, Log D values (distribution coefficient) were determined by means of the well-established shake flask method, measuring the partition of a compound between an octanol and phosphate-buffered saline (PBS, pH 7.4) by HPLC.
Compounds with a moderate lipophilicity (Log D values from 0 to 3) are usually advantaged for oral absorption, being in balance between solubility and permeability. However, sophisticated formulation of a compound might improve oral bioavailability for highly lipophilic compounds.

The term Papp denotes the rate of passage across a membrane or cell layer, normalised by area and donor concentration. Low values mean poor permeation, high ones ready permeation. For orientation: IC50 means the midpoint of a concentration-inhibition curve. In general, logD refers to the decadic logarithm of the distribution of all forms, ionised or not, between an organic phase and buffer at a given pH. `CCNC(=O)C(=O)CC[C@H](NC(=O)c1nccn1C)C(=O)Nc1cccn(CC(=O)NC23CC4CC(C)(CC(C)(C4)C2)C3)c1=O` [Compound I-23, (S)-N1-ethyl-N6-(1-(2-(3,5-dimethyladamantane-1-amino)-2-oxoethyl)-2-oxo-1,2-dihydropyridin-3-yl)-5-(1-methyl-1H-imidazole-2-carboxamido)-2-oxohexanediamide]: the Papp in series [1] was less than 1 ×10⁻⁶ cm/s. For the same compound, the IC50 in series [2] lay in the range of 600 to 3500 nM. Further, in series [3], the logD fell in the range of 1 to 3.
The like results for `CCNC(=O)C(=O)CC[C@H](NC(=O)c1cnc(C)n1C)C(=O)Nc1cccn(CC(=O)NC23CC4CC(C)(CC(C)(C4)C2)C3)c1=O` [Compound I-24, (S)-2-(1,2-dimethyl-1H-imidazole-5-carboxamido)-N6-ethyl-N1-(1-(2-(3,5-dimethyladamantane-1-amino)-2-oxoethyl)-2-oxo-1,2-dihydropyridin-3-yl)-5-oxohexanediamide] were, in that order, less than 1 ×10⁻⁶ cm/s, 150 to 600 nM and 1 to 3.
On the same counts, the results for `CCNC(=O)C(=O)CC[C@H](NC(=O)c1cncn1C)C(=O)Nc1cccn(CC(=O)NC23CC4CC(CC(C)(C4)C2)C3)c1=O` [Compound I-25, (S)-N1-ethyl-N6-(1-(2-(3-methyladamantane-1-amino)-2-oxoethyl)-2-oxo-1,2-dihydropyridin-3-yl)-5-(1-methyl-1H-imidazole-5-carboxamido)-2-oxohexanediamide] are less than 1 ×10⁻⁶ cm/s, 150 to 600 nM and 1 to 3.
The like results for `CCNC(=O)C(=O)CC[C@H](NC(=O)c1cnc(Cl)n1C)C(=O)Nc1cccn(CC(=O)NC23CC4CC(C)(CC(C)(C4)C2)C3)c1=O` [Compound I-26, (S)-2-(2-chloro-1-methyl-1H-imidazole-5-carboxamido)-N6-ethyl-N1-(1-(2-(3,5-dimethyladamantane-1-amino)-2-oxoethyl)-2-oxo-1,2-dihydropyridin-3-yl)-5-oxohexanediamide] were, in that order, less than 1 ×10⁻⁶ cm/s, 150 to 600 nM and 1 to 3.
For the compound `CCNC(=O)C(=O)CC[C@H](NC(=O)c1cnc(C)n1C)C(=O)Nc1cccn(CC(=O)NC23CC4CC(CC(C)(C4)C2)C3)c1=O` [Compound I-27, (S)-2-(1,2-dimethyl-1H-imidazole-5-carboxamido)-N6-ethyl-N1-(1-(2-(3-methyladamantane-1-amino)-2-oxoethyl)-2-oxo-1,2-dihydropyridin-3-yl)-5-oxohexanediamide], the Papp in series [1] is less than 1 ×10⁻⁶ cm/s. The IC50 in series [2] is 600 to 3500 nM. For the same compound, the logD in series [3] was 1 to 3.
The like results for `CCNC(=O)C(=O)CC[C@H](NC(=O)c1cncn1C)C(=O)Nc1cccn(CC(=O)NC23CC4(C)CC(C)(CC(C)(C4)C2)C3)c1=O` [Compound I-28, (S)-N1-ethyl-N6-(1-(2-(3,5,7-trimethyl-1-adamantylamino)-2-oxoethyl)-2-oxo-1,2-dihydropyridin-3-yl)-5-(1-methyl-1H-imidazole-5-carboxamido)-2-oxohexanediamide] were, in that order, less than 1 ×10⁻⁶ cm/s, less than 150 nM and 1 to 3.
Consider `CCNC(=O)C(=O)CC[C@H](NC(=O)c1cnc(Cl)n1C)C(=O)Nc1cccn(CC(=O)NC23CC4(C)CC(C)(CC(C)(C4)C2)C3)c1=O` [Compound I-29, (S)-2-(2-chloro-1-methyl-1H-imidazole-5-carboxamido)-N6-ethyl-N1-(1-(2-(3,5,7-trimethyl-1-adamantylamino)-2-oxoethyl)-2-oxo-1,2-dihydropyridin-3-yl)-5-oxohexanediamide], for which the Papp in series [1] was less than 1 ×10⁻⁶ cm/s. Also, the IC50 in series [2] is less than 150 nM. The logD in series [3] fell in the range of 1 to 3.
On the same counts, the results for `CCNC(=O)C(=O)CC[C@H](NC(=O)c1cc2ccccc2o1)C(=O)Nc1cccn(CC(=O)NC2C3CC4CC(C3)CC2C4)c1=O` (stereo partly drawn) [Compound I-30, (S)-2-(benzofuran-2-carboxamido)-N6-ethyl-N1-(1-(2-(2-adamantylamino)-2-oxoethyl)-2-oxo-1,2-dihydropyridin-3-yl)-5-oxohexanediamide] are 1 to 10 ×10⁻⁶ cm/s, less than 150 nM and 3 to 5.
